Drawing on ChEMBL document CHEMBL1156393, “Pibocin B, the first N-O-methylindole marine alkaloid, a metabolite from the Far-Eastern ascidian Eudistoma species” (2001), this text covers EC50 for one compound.

A short description of the test: Cytotoxicity against mouse EAC cells. It is filed as functional. Conditions: Ehrlich, read-out: ED50 (the source's name).

Each structure is given as a SMILES string. In brackets after ≈: the same amount, converted by molar mass.

Regarding `COn1c(Br)c2c3c(cccc31)[C@H]1C[C@@H](C)CN(C)[C@@H]1C2` [PIBOCIN B], the EC50 is 25 µg/mL (≈ 71.6 µM).
